# In patent publication US20260209152A1, “Substituted Hydroxystilbene Compounds and Derivatives, Synthesis and Uses Thereof” (Kynan Duke IP, LLC, priority 2019, published 2026):
# Where two headings read alike, the source gives them in different places.
# Tests used:
# Brain U-87 MG HTB-14 = assay: CellTiter Glo cell viability assay; format: cell-based; settings: Homo sapiens, Table 5B: 11 dilutions 3-0.00001 μM, Exp L-N
# Description: (§1) 1.7*10^3 cells/well were seeded in quadruplicates in 96-well plate after plating. […] Cell growth was assessed on day 1, 3 and 5 after drug treatments using the CellTiter Glo Luminescence Cell Viability Assay (Promega) according to manufacturer's protocol. Thermo Scientific Varioskan LUX Multimode Microplate instrument was used for plate reading. Data are expressed as mean luminescence (arbitrary units) ±S.D.
# (§2) Cell Viability Assays were employed to determine the concentration of Compound 1 (KYN-001) and analogues where the response is reduced by half. […] GraphPad Prism 7 software was used to fit dose response curves. Relative Luminescence Units were plotted against the log values of the doses used and the nonlinear regression model was used for data analysis.
# [1] = system: Cancer cells including pancreatic, bladder, kidney, colon, breast, lung, liver and osteosarcomas; assay: CellTiter Glo cell viability assay, panel of cancer cell lines; format: cell-based, human; settings: SAR discussion based on IC50 values in Tables 1 to 5; compared with 1 [KYN-001]
# Description: Compounds 1 to 15 were evaluated and their effect on cancer growth examined in cell viability assays on multiple cancer types (Tables 1 to 5). Cancer cells including pancreatic, bladder, kidney, colon, breast, lung, liver and osteosarcomas obtained from ATCC (American Type Culture Collection) were authenticated before use by Short Tandem Repeat genomic analysis (Reid Y, Storts D, Riss T and Minor L. Authentication of Human Cell Lines by STR DNA Profiling Analysis. 2013 May 1. In: Markossian S, Sittampalam G S, Grossman A, et al., editors. Assay Guidance Manual. Bethesda (MD): Eli Lilly & Company and the National Center for Advancing Translational Sciences; 2004.). Experimental protocol for each cancer cell line was verified and optimized according to literature reports before use (Tables 1 to 3).
# (§3) 1.7*10^3 cells/well were seeded in quadruplicates in 96-well plate after plating. Drugs were added at 5 μM and 2-fold dilutions over 18 concentrations (0.000038146-5 […] range) to generate a dose-response curve. Cell growth was assessed on day 1, 3 and 5 after drug treatments using the CellTiter Glo Luminescence Cell Viability Assay (Promega) according to manufacturer's protocol. Thermo Scientific Varioskan LUX Multimode Microplate instrument was used for plate reading. Data are expressed as mean luminescence (arbitrary units) ±S.D.
# (§4) Cell Viability Assays were employed to determine the concentration of Compound 1 (KYN-001) and analogues where the response is reduced by half. For each treatment of cancer cells, 1, 2, 5, 10 and 20 μM solutions of compounds were applied. GraphPad Prism 7 software was used to fit dose response curves. Relative Luminescence Units were plotted against the log values of the doses used and the nonlinear regression model was used for data analysis.
# (§5) The protocol for cell proliferation was optimized for Compound 8 (KYN-119) to enable a more accurate assessment of its low IC50 value. In this protocol, 18 dosages (2 fold dilutions ranging from 0.000038146 to 5 μM) were applied to cells seeded in 96-well plates, and Luminescence was measured after 1, 3 and 5 days upon treatments.
# Pancreatic MIA PaCa-2 = assay: CellTiter Glo cell viability assay; format: cell-based, human; settings: Homo sapiens, read-out: IC50
# Description: as §3, §4, §5
# Day 3 upon treatment of MIA PaCa_2 pancreatic cancer cells, 24 h after plating (11 dilutions), as assessed by CellTiter Glow Assay.
# Kidney A-498 = assay: CellTiter Glo cell viability assay; format: cell-based, human; settings: Homo sapiens, A498, Table 5A: 11 dilutions 3-0.00001 μM; single experiments Exp E-K; read-out: IC50
# Description: as §1, §2
# The protocol for cell proliferation was optimized for Compound 8 (KYN-119) to enable a more accurate assessment of its low IC50 value. […]
# [2] = Stability in solution (LCMS observation); format: physicochemical; settings: standing in methanol for 16 hours; acetonitrile in water chromatography
# Description: NOTE: In a trial run, compound 15-9 (50 mg) was converted to compound 15 using conditions as described above.
# [3] = system: IL-17A secretion from human PBMC stimulated with antiCD3/antiCD28-coated beads; settings: assay description, cited from earlier work
# GBM patient sample BNB18 = assay: Ex vivo GBM 3D spheroid drug response (CellTiter-Glo 3D); format: cell-based, human; design: key to TMZ Response: NR: Non-responder; MR: Moderate responder; Responder; settings: 3D spheroids
# Text: (§6) This project involves an ex vivo drug response screen for 3 ROKiT Pharma test agents and Temozolomide in 3 previously dissociated and cryopreserved GBM samples.
# (§7) • 2.1 Three previously processed GBM patient samples were chosen to be used in this study.
# GBM patient sample BNA99 = assay: as above; format: cell-based, human; design: key to TMZ Response: NR: Non-responder; MR: Moderate responder; Responder; settings: 3D spheroids
# Text: as §6, §7
# GBM patient sample BNB04 = assay: as above; format: cell-based, human; design: key to TMZ Response: NR: Non-responder; MR: Moderate responder; Responder; settings: 3D spheroids
# Text: as §6, §7
# [4] = MIA PaCa-2, Table 5B: MIA PaCa-2 CRL-1420, 11 dilutions 3-0.00001 μM, Exp L-N
SMILES,IC50 (Brain U-87 MG HTB-14) [nM],"Cancer cell viability inhibition, statement in words [1]",IC50 (Pancreatic MIA PaCa-2; [4]) [nM],other results
"COc1cc(/C=C/c2cc(O)cc(NC=O)c2CC=C(C)C)ccc1O [Compound 48, (E)-N-(5-Hydroxy-3-(4-hydroxy-3-methoxystyryl)-2-(3-methylbut-2-en-1-yl)phenyl)formamide]",555,anticancer activities comparable to 1,486,–
"CCOc1cc(O)cc(/C=C/c2ccc(N(O)C(C)=O)c(OC)c2)c1CC=C(C)C [Compound 39, (E)-N-(4-(3-ethoxy-5-hydroxy-2-(3-methylbut-2-en-1-yl)styryl)-2-methoxyphenyl)-N-hydroxyacetamide]",~3000,almost complete loss of anticancer activity,> 3000,–
"CCOc1cc(O)cc(/C=C/c2ccc3[nH]c(=O)n(C)c3c2)c1CC=C(C)C [Compound 51, (E)-6-(3-Ethoxy-5-hydroxy-2-(3-methylbut-2-en-1-yl)styryl)-1-methyl-1,3-dihydro-2H-benzo[d]imidazol-2-one]",~3000,no significant activity,–,–
"CNc1cc(/C=C/c2cc(O)cc(OC)c2CC=C(C)C)ccc1O [Compound 15, (E)-3-(4-Hydroxy-3-(methylamino)styryl)-5-methoxy-4-(3-methylbut-2-en-1-yl)phenol]",–,inactive or weakly active,–,"IC50 (Kidney A-498): > 3000 nM; Stability in solution [2]: might be unstable in solution; IC50 (Pancreatic MIA PaCa-2; MIA PaCa-2, Table 5A: 11 dilutions 3-0.00001 μM, single experiments Exp E-K): > 3000 nM"
C=CC[C@@H]1/C=C(\C)C[C@H](C)C[C@H](OC)[C@H]2O[C@@](O)(C(=O)C(=O)N3CCCC[C@H]3C(=O)O[C@H](/C(C)=C/[C@@H]3CC[C@@H](O)[C@H](OC)C3)[C@H](C)[C@@H](O)CC1=O)[C@H](C)C[C@@H]2OC [Tacrolimus],–,–,–,"Emax (plateau of the fitted curve), IL-17A release (reference compound) [3]: approximately 90%; EC50 ([3]; read-out: EC50, IL-17A release (reference compound)): ~0.34 nM"
"Cn1nnc2c(C(N)=O)ncn2c1=O [TMZ, Temozolomide, reference compound]",–,–,–,TMZ Response (GBM patient sample BNB18): R; TMZ Response (GBM patient sample BNA99): NR; TMZ Response (GBM patient sample BNB04): MR
"COc1cc(/C=C/c2cc(O)cc(NC(C)=O)c2CC=C(C)C)ccc1O [Compound 49, (E)-N-(5-hydroxy-3-(4-hydroxy-3-methoxystyryl)-2-(3-methylbut-2-en-1-yl)phenyl)acetamide]",1400,anticancer activities comparable to 1,531,–
